Experimental data: PMC11770630 (Journal of Medicinal Chemistry, 2025)

What was measured:
[1] = tested on: MERLIN-HCT116 cells; assay: MERLIN BRET biosensor assay of mitochondria-ER distance; format: cell-based, human
[2] = tested on: HCT116 cells; conditions: 24 h, safety limit cell viability >80%; for Cell viability (MTT), safety at 1 μM: HCT116, 1 μM; for Cell viability (MTT), safety above 5 μM: HCT116, 5 and 10 μM
[3] = tested on: control and sALS lymphoblasts; assay: Cholesteryl-esters determination; format: cell-based, human; conditions: control or sALS lymphoblasts, 5 μM for 24 h
[4] = tested on: control and sALS lymphoblasts; assay: Quantification of lipid droplets; format: cell-based, human; conditions: control or sALS lymphoblasts, 5 μM for 24 h
[5] = tested on: ALS patient-derived lymphoblastic cell lines; assay: Extracellular NBD-cholesterol uptake in patient lymphoblastic cell lines; format: cell-based, human; conditions: SOD1-ALS lymphoblastoid cell lines, 5 μM, 24 h, NBD-cholesterol 1 h
[6] = tested on: sALS lymphoblasts; assay: Mitochondrial oxygen consumption rate; format: cell-based, human; conditions: 5 μM, 24 h
[7] = tested on: HCT116 cells; assay: Extracellular NBD-cholesterol uptake in HCT116 cells; format: cell-based, human; conditions: HCT116, 5 μM, after 3 h
[8] = tested on: lymphoblasts from sporadic ALS patients; assay: Electron microscopy of lymphoblast cells; format: cell-based, human; conditions: 5 μM for 24 h

SMILES | Cell viability (MTT), safety at 1 μM [2] | Cell viability (MTT), safety above 5 μM [2] | BBB passive permeation (PAMPA) | other results
O=C(Nc1ccc([N+](=O)[O-])cc1Cl)c1cc(Cl)ccc1O [Compound 1, 5-Chloro-N-(2-chloro-4-nitrophenyl)-2-hydroxybenzamide, reference compound] |  |  |  | EC50 ([1]; Homo sapiens, read-out: EC50 (BRET), HTS hit): 8.36 µM
N#Cc1ccc(NC(=O)c2cc(Cl)ccc2O)cc1 [Compound 27, 5-Chloro-N-(4-cyanophenyl)-2-hydroxybenzamide] | safe | cellular safety above 5 μM | demonstrated the capability to cross the BBB through passive permeation | 
O=C(Nc1ccc([N+](=O)[O-])cc1)c1cc(Cl)ccc1O [Compound 25, 5-Chloro-2-hydroxy-N-(4-nitrophenyl)benzamide] |  |  | demonstrated the capability to cross the BBB through passive permeation | 
O=C(Nc1ccc([N+](=O)[O-])cc1F)c1cc(Cl)ccc1O [Compound 2, 5-Chloro-N-(2-fluoro-4-nitrophenyl)-2-hydroxybenzamide] | safe |  |  | 
O=C(Nc1cccc([N+](=O)[O-])c1)c1cc(Cl)ccc1O [Compound 29, 5-Chloro-2-hydroxy-N-(3-nitrophenyl)benzamide] | safe | cellular safety above 5 μM | demonstrated the capability to cross the BBB through passive permeation | 
O=C(Nc1ccccc1)c1cc(Cl)ccc1O [Compound 24, 5-Chloro-2-hydroxy-N-phenylbenzamide] | safe | cellular safety above 5 μM | demonstrated the capability to cross the BBB through passive permeation | Cholesteryl esters levels [3]: induce the formation of cholesteryl esters; Lipid droplet levels [4]: increase the levels of lipid droplet; Extracellular cholesterol uptake [5]: this change was not observed; Basal OCR [6]: successfully restored basal OCR levels; Spare respiratory capacity [6]: notable improvement in spare respiratory capacity; Extracellular cholesterol uptake capacity [7]: significantly increased; BRET signal change (individual data) ([1]; higher doses, normalized to DMSO (MOCK)): significant BRET increases at higher doses; Number of MERCs (TEM) ([8]; lymphoblasts from sALS patients): rescued the number of contacts; Lipid droplets in cytosol (TEM) ([8]; sALS lymphoblasts): displayed large lipid droplets in their cytosol; Mitochondrial cristae structure (TEM) ([8]; sALS lymphoblasts): cristae structure was restored
